Measurements taken from US11254667B2 (priority 2016, dated 2022).
≈ marks a conversion by molar mass, not a printed value. Like-named read-outs stand apart in the source and are kept apart here.

Legend:
physchem = details: pH 7.4, aqueous buffer, kinetic from dmso stock

Row | Stability (rat) | solubility (physchem) | SMILES | Stability
1 | >30.0 min | > 39 µg/mL | c1cc(NC2CNC2)nc(-c2cnc3ccccn23)c1 [Compound I-12, N-(azetidin-3-yl)-6-(imidazo[1,2-a]pyridin-3-yl)pyridin-2-amine] | –
2 | 27 min | 7.7 µg/mL (≈ 22.4 µM) | COc1cc2ncc(-c3cccc(NC4CCNC4)n3)n2cc1Cl (stereo not drawn) [Compound I-21, 6-(6-chloro-7-methoxyimidazo[1,2-a]pyridin-3-yl)-N-(pyrrolidin-3-yl)pyridin-2-amine] | –
3 | 24.7 min | 12.3 µg/mL (≈ 31.6 µM) | COc1cc2ncc(-c3cccc(NC4CCNCC4)n3)n2cc1-c1cn[nH]c1 [Compound I-30] | –
4 | 11.8 min | > 46 µg/mL | Cc1ccc(-c2cnc3ccc(Cl)cn23)nc1NC1CNC1 [Compound I-48] | –
5 | 26.2 min | > 46 µg/mL | Cc1ccc(NC2CNC2)nc1-c1cnc2ccc(Cl)cn12 [Compound I-49] | –
6 | >30.0 min | > 44 µg/mL | COc1ccn2c(-c3cccc(NC4CNC4)n3)cnc2c1 [Compound I-50, N-(azetidin-3-yl)-6-(7-methoxyimidazo[1,2-a]pyridin-3-yl)pyridin-2-amine] | –
7 | 19.8 min | 41.8 µg/mL (≈ 121 µM) | Brc1ccc2ncc(-c3cccc(NC4CNC4)n3)n2c1 [Compound I-52] | –
8 | >30.0 min | 19.5 µg/mL (≈ 51.5 µM) | Clc1ccc2ncc(-c3cc(Br)cc(NC4CNC4)n3)n2c1 [Compound I-53] | –
9 | – | > 46 µg/mL | Cc1cc(NC2CNC2)nc(-c2cnc3ccc(Cl)cn23)c1 [Compound I-55, N-(azetidin-3-yl)-6-(6-chloroimidazo[1,2-a]pyridin-3-yl)-4-methylpyridin-2-amine] | –
10 | >30.0 min | > 50 µg/mL | CC(=O)N1CC(Nc2cccc(-c3cnc4ccc(Cl)cn34)n2)C1 [Compound I-57] | –
11 | 8.0 min | < 1 µg/mL | O=C(c1ccccc1)N1CC(Nc2cccc(-c3cnc4ccc(Cl)cn34)n2)C1 [Compound I-58] | –
12 | >30.0 min | 18.3 µg/mL (≈ 49.9 µM) | N#CCC(=O)N1CC(Nc2cccc(-c3cnc4ccc(Cl)cn34)n2)C1 [Compound I-59] | –
13 | 16.4 min | > 43 µg/mL | N#Cc1ccc2ncc(-c3cccc(NC4CNC4)n3)n2c1 [Compound I-60, 3-(6-(azetidin-3-ylamino)pyridin-2-yl)imidazo[1,2-a]pyridine-6-carbonitrile] | –
14 | >30.0 min | > 41 µg/mL | Cc1ccn2c(-c3cccc(NC4CNC4)n3)cnc2c1 [Compound I-61, N-(azetidin-3-yl)-6-(7-methylimidazo[1,2-a]pyridin-3-yl)pyridin-2-amine] | –
15 | >30.0 min | 41.5 µg/mL (≈ 124 µM) | Clc1cc2ncc(-c3cccc(NC4CNC4)n3)n2cc1Cl [Compound I-62] | –
16 | – | > 44 µg/mL | Clc1ccn2c(-c3cccc(NC4CNC4)n3)cnc2c1 [Compound I-63, N-(azetidin-3-yl)-6-(7-chloroimidazo[1,2-a]pyridin-3-yl)pyridin-2-amine] | –
17 | – | > 56 µg/mL | CCN1CCN(c2ccc3ncc(-c4cccc(NC5CNC5)n4)n3c2)CC1 [Compound I-64] | –
18 | >30.0 min | > 49 µg/mL | COc1cc(NC2CNC2)nc(-c2cnc3ccc(Cl)cn23)c1 [Compound I-67, N-(azetidin-3-yl)-6-(6-chloroimidazo[1,2-a]pyridin-3-yl)-4-methoxypyridin-2-amine] | –

Row | SMILES | Stability (rat) | solubility (physchem) | Stability
19 | c1cc(N[C@H]2CCNC2)nc(-c2cnc3ccc(-c4cn[nH]c4)cn23)c1 [Compound I-44] | – | 42.6 µg/mL (≈ 123 µM) | 6.7 min
20 | CN(c1cccc(-c2cnc3ccc(Cl)cn23)n1)C1CCNCC1 [Compound I-51] | – | > 50 µg/mL | 9.0 min
21 | c1cc(NC2CCNC2)nc(-c2cnc3ccc(-c4cn[nH]c4)cn23)c1 (stereo not drawn) [Compound I-54, 6-(6-(1H-pyrazol-4-yl)imidazo[1,2-a]pyridin-3-yl)-N-(pyrrolidin-3-yl)pyridin-2-amine] | – | > 51 µg/mL | 7.6 min
